Measured values reported in patent publication US6428974B1, “Microplate for drug susceptibility testing containing a drug, a color reagent, and color suppressant” (Kanto Kagaku Kabushiki Kaisha, priority 1998, dated 2002).
Values after ≈ are worked out from the molar mass of the structure shown.

Columns and labels:
Candida krusei ATCC 6258 [1] = conditions: C. krusei ATCC 6258; MIC acceptable range of NCCLS M27-A; cited from earlier work
[2] = tested on: Candida parapsilosis ATCC 22019; conditions: C. parapsilosis ATCC 22019; MIC acceptable range of NCCLS M27-A; cited from earlier work
[3] = tested on: Candida tropicalis ATCC 750; conditions: C. tropicalis ATCC 750; MIC acceptable range of NCCLS M27-A; cited from earlier work
[4] = tested on: Candida albicans ATCC 24433; conditions: C. albicans ATCC 24433; MIC acceptable range of NCCLS M27-A; cited from earlier work
[5] = tested on: Candida parapsilosis ATCC 90018; conditions: C. parapsilosis ATCC 90018; MIC acceptable range of NCCLS M27-A; cited from earlier work
[6] = tested on: Candida albicans ATCC 24433; assay: Microplate method of the invention (WST-8 color reagent); assay type: cell-based; conditions: C. albicans ATCC 24433, range over repeated tests (n = 10), AMPH complete inhibition, 5-FC/FLCZ/MCZ IC80, 24 or 48 hrs, 35°C; for MIC: Candida albicans, ATCC24433
Method: (§1) Four drugs of AMPH, 5-FC, FLCZ and MCZ were considered. The drug solution for the solid phase formation on the microplate was prepared as follows. The drug was dissolved in dimethylsulfoxide (DMSO) or diluted by using it. The solution was prepared so that it was AMPH 128 μg/ml, 5-FC 512 μg/ml, FLCZ 512 μg/ml or MCZ 256 μg/ml. By the use of the prepared drug the two fold dilution series was prepared in an appropriate concentration range with DMSO or water, and separately infused by 25 μl/well and formed into the dry and solid phase under vacuum (13.3-26.6 Pa) for 24 hrs. After the solid phase formation of the antifungal, the color reagent consisting of WST-8 0.7 mM, 1-methoxy PMS 3.5 μM, potassium ferricyanide 0.5 mM and potassium ferrocyanide 0.5 mM was separately infused by 20 μl/well and formed into the dry and solid phase under vacuum for 24 hrs.
(§2) By using the colony within 24 hrs. in the incubation was prepared the fungal suspension with the sterile saline 5 ml. The fungal suspension corresponding to McFarland # 0.5 was prepared by measuring the absorbancy at the wave length of 530 nm. 0.1 ml of the prepared fungal suspension was taken by the micropipette, added to 0.9 ml of the 1.2% glucose MOPS buffered PRMI 1640 medium, and stirred thoroughly by the vortex-mixer, and then 0.1 ml of this was taken by the micropipette, added to 20 ml of the […] MOPS buffered PRMI 1640 medium, and stirred thoroughly by the vortex-mixer to prepare the replicated fungal suspension (0.5×10^3−2.5×10^3 cfu/ml). The replicated fungal suspension prepared was separately inoculated by 200 μl into each well of the microplate dryly fixed with the drug having the concentration gradient of the two fold dilution prepared in the above B. After lidding the plate the aerobic culture was done at 35±1° C. The absorbancy at 630 nm of the growth control (the testing fungal strains were incubated in the well wherein the antifungal agents and the color reagent was not formed into the solid phase) after the 24 hrs. incubation was measured.
(§3) After stirring the microplate under shaking for 1 min., the absorbency of the dominant wave length 450 nm and the complementary wavelength 630 nm was measured, and the reading was carried out by the following method.
(§4) 1. The minimum concentration showing the absorbancy in AMPH equal to or less than that in the negative control was made the minimum growth inhibition concentration (MIC).
(§5) 2. The 80% growth inhibition concentration (IC 80) was read in 5-Fc, FLCZ and MCZ. The drug concentration of the well showing the absorbancy equal to or less than the absorbency obtained by the following equation was made MIC.
(§6) (IC80=(positive control−negative control)×0.2 +negative control)

[7] = tested on: Candida albicans ATCC 90028; assay: as above; assay type: cell-based; conditions: C. albicans ATCC 90028, range over repeated tests (n = 10), AMPH complete inhibition, 5-FC/FLCZ/MCZ IC80, 24 or 48 hrs, 35°C; for MIC: Candida albicans, ATCC90028
Method: as §1, §2, §3, §4, §5, §6

Candida krusei ATCC 6258 [8] = assay: as above; assay type: cell-based; conditions: C. krusei ATCC 6258, range over repeated tests (n = 10), AMPH complete inhibition, 5-FC/FLCZ/MCZ IC80, 24 or 48 hrs, 35°C; for MIC: Pichia kudriavzevii, ATCC6258
Method: as §1, §2, §3, §4, §5, §6

[9] = tested on: Candida parapsilosis ATCC 90018; assay: as above; assay type: cell-based; conditions: C. parapsilosis ATCC 90018, range over repeated tests (n = 7), AMPH complete inhibition, 5-FC/FLCZ/MCZ IC80, 24 or 48 hrs, 35°C; for MIC: Lodderomyces parapsilosis, ATCC90018
Method: as §1, §2, §3, §4, §5, §6

[10] = tested on: Candida tropicalis ATCC 750; assay: as above; assay type: cell-based; conditions: C. tropicalis ATCC 750, range over repeated tests (n = 10), AMPH complete inhibition, 5-FC/FLCZ/MCZ IC80, 24 or 48 hrs, 35°C; for MIC: Candida tropicalis, ATCC750
Method: as §1, §2, §3, §4, §5, §6

[11] = tested on: Candida parapsilosis ATCC 22019; assay: as above; assay type: cell-based; conditions: C. parapsilosis ATCC 22019, range over repeated tests (n = 10), AMPH complete inhibition, 5-FC/FLCZ/MCZ IC80, 24 or 48 hrs, 35°C; for MIC: Lodderomyces parapsilosis, ATCC22019
Method: as §1, §2, §3, §4, §5, §6

[12] = tested on: Candida albicans ATCC 24433; assay: Turbidity method (Japanese Society for Medical Mycology microdilution); assay type: cell-based; conditions: C. albicans ATCC 24433, range over repeated tests (n = 10); for MIC: Candida albicans, ATCC24433
Method: (§7) For the comparison was used the 1.2% glucose MOPS buffered RPMI 1640medium and it was carried out according to the proposed method of Japanese Society for Medical Mycology (the microdilution method of 0.2 ml incubation system).

[13] = tested on: Candida albicans ATCC 90028; assay: as above; assay type: cell-based; conditions: C. albicans ATCC 90028, range over repeated tests (n = 10); for MIC: Candida albicans, ATCC90028
Method: as §7

Candida krusei ATCC 6258 [14] = assay: as above; assay type: cell-based; conditions: C. krusei ATCC 6258, range over repeated tests (n = 10); for MIC: Pichia kudriavzevii, ATCC6258
Method: as §7

[15] = tested on: Candida parapsilosis ATCC 90018; assay: as above; assay type: cell-based; conditions: C. parapsilosis ATCC 90018, range over repeated tests (n = 7); for MIC: Lodderomyces parapsilosis, ATCC90018
Method: as §7

[16] = tested on: Candida tropicalis ATCC 750; assay: as above; assay type: cell-based; conditions: C. tropicalis ATCC 750, range over repeated tests (n = 10); for MIC: Candida tropicalis, ATCC750
Method: as §7

[17] = tested on: Candida parapsilosis ATCC 22019; assay: as above; assay type: cell-based; conditions: C. parapsilosis ATCC 22019, range over repeated tests (n = 10); for MIC: Lodderomyces parapsilosis, ATCC22019
Method: as §7

[18] = tested on: Candida albicans ATCC 90028; conditions: C. albicans ATCC 90028; MIC acceptable range of NCCLS M27-A; cited from earlier work

| MIC [6] [µg/mL] | MIC [7] [µg/mL] | MIC (Candida krusei ATCC 6258 [8]) [µg/mL] | MIC [9] [µg/mL] | MIC [10] [µg/mL] | MIC [11] [µg/mL] | MIC [12] [µg/mL] | MIC [13] [µg/mL] | MIC (Candida krusei ATCC 6258 [14]) [µg/mL] | MIC [15] [µg/mL] | MIC [16] [µg/mL] | MIC [17] [µg/mL] | Structure (SMILES) | MIC reference range (Candida krusei ATCC 6258 [1]) [µg/mL] | MIC reference range [2] [µg/mL] | MIC reference range [3] [µg/mL] | MIC reference range [4] [µg/mL] | MIC reference range [5] [µg/mL] | MIC reference range [18] [µg/mL] | other results |
| --- | --- | --- | --- | --- | --- | --- | --- | --- | --- | --- | --- | --- | --- | --- | --- | --- | --- | --- | --- |
| 0.5 to 2 (≈ 3.87 to 15.5 µM) | 0.25 to 1 (≈ 1.94 to 7.75 µM) | 8 to 16 (≈ 62 to 124 µM) | 0.12 (≈ 0.93 µM) | 0.12 (≈ 0.93 µM) | 0.12 to 0.5 (≈ 0.93 to 3.87 µM) | 0.5 to 2 (≈ 3.87 to 15.5 µM) | 0.25 to 2 (≈ 1.94 to 15.5 µM) | 8 to 16 (≈ 62 to 124 µM) | 0.12 (≈ 0.93 µM) | 0.12 (≈ 0.93 µM) | 0.12 to 0.5 (≈ 0.93 to 3.87 µM) | Nc1[nH]c(=O)ncc1F [5-FC, Flucytosine] | 4.0 to 16 | 0.12 to 0.5 | 0.12 to 0.25 | 1.0 to 4.0 | 0.12 to 0.25 | 0.5 to 2.0 | – |
| – | – | – | – | – | – | – | – | – | – | – | – | C[C@@H]1[C@H](O)[C@@H](C)/C=C/C=C/C=C/C=C/C=C/C=C/C=C/[C@H](O[C@@H]2O[C@H](C)[C@@H](O)[C@H](N)[C@@H]2O)C[C@@H]2O[C@](O)(C[C@@H](O)C[C@@H](O)[C@H](O)CC[C@@H](O)C[C@@H](O)CC(=O)O[C@H]1C)C[C@H](O)[C@H]2C(=O)O [AMPH, Amphotericine B] | 0.5 to 2.0 | 0.25 to 1.0 | 0.5 to 2.0 | 0.25 to 1.0 | 0.5 to 2.0 | 0.5 to 2.0 | MIC, Method of the invention [6]: 0.12 to 0.5 µg/mL; MIC, Method of the invention [7]: 0.12 to 0.5 µg/mL; MIC, Method of the invention (Candida krusei ATCC 6258 [8]): 0.25 to 0.5 µg/mL; MIC, Method of the invention [9]: 0.12 to 0.25 µg/mL; MIC, Method of the invention [10]: 0.12 to 0.5 µg/mL; MIC, Method of the invention [11]: 0.12 to 1.0 µg/mL; MIC, Turbidity method [12]: 0.12 to 0.5 µg/mL; MIC, Turbidity method [13]: 0.12 to 0.5 µg/mL; MIC, Turbidity method (Candida krusei ATCC 6258 [14]): 0.12 to 0.5 µg/mL; MIC, Turbidity method [15]: 0.12 to 0.25 µg/mL; MIC, Turbidity method [16]: 0.12 to 0.5 µg/mL; MIC, Turbidity method [17]: 0.06 to 0.25 µg/mL |
| 0.25 to 8 (≈ 0.816 to 26.1 µM) | 0.25 to 1 (≈ 0.816 to 3.27 µM) | 16 to 64 (≈ 52.2 to 209 µM) | 0.5 to 2 (≈ 1.63 to 6.53 µM) | 0.5 to 2 (≈ 1.63 to 6.53 µM) | 2 to 4 (≈ 6.53 to 13.1 µM) | 0.12 to 1 (≈ 0.392 to 3.27 µM) | 0.12 to 0.25 (≈ 0.392 to 0.816 µM) | 8 to 64 (≈ 26.1 to 209 µM) | 0.5 (≈ 1.63 µM) | 0.5 to 1 (≈ 1.63 to 3.27 µM) | 1 to 2 (≈ 3.27 to 6.53 µM) | OC(Cn1cncn1)(Cn1cncn1)c1ccc(F)cc1F [FLCZ, Fluconazole] | 16 to 64 | 2.0 to 8.0 | 1.0 to 4.0 | 0.25 to 1.0 | 0.25 to 1.0 | 0.25 to 1.0 | – |
| 0.06 to 1 (≈ 0.144 to 2.4 µM) | 0.06 to 0.12 (≈ 0.144 to 0.288 µM) | 0.25 to 1 (≈ 0.601 to 2.4 µM) | 0.12 to 0.5 (≈ 0.288 to 1.2 µM) | 0.25 to 2 (≈ 0.601 to 4.81 µM) | 0.5 to 1 (≈ 1.2 to 2.4 µM) | 0.06 to 0.5 (≈ 0.144 to 1.2 µM) | 0.06 to 0.12 (≈ 0.144 to 0.288 µM) | 0.25 to 1 (≈ 0.601 to 2.4 µM) | 0.06 to 0.25 (≈ 0.144 to 0.601 µM) | 0.12 to 1 (≈ 0.288 to 2.4 µM) | 0.25 to 0.5 (≈ 0.601 to 1.2 µM) | Clc1ccc(COC(Cn2ccnc2)c2ccc(Cl)cc2Cl)c(Cl)c1 (stereo not drawn) [MCZ, Miconazole] | – | – | – | – | – | – | – |
